Results: US20190327974A1, “SYNERGISTS FOR IMPROVED PESTICIDES” (priority 2017, published 2019)
Read-outs that look alike come from different tables or passages of the source.

How the values were obtained:
[1] = molecular target: T1, wildtype LcαE7 (Lucilia cuprina, UniProt Q25252); test: Enzyme inhibition assay with 4-nitrophenol butyrate, wild-type; format: biochemical
T1 sequence (Q25252 1-570): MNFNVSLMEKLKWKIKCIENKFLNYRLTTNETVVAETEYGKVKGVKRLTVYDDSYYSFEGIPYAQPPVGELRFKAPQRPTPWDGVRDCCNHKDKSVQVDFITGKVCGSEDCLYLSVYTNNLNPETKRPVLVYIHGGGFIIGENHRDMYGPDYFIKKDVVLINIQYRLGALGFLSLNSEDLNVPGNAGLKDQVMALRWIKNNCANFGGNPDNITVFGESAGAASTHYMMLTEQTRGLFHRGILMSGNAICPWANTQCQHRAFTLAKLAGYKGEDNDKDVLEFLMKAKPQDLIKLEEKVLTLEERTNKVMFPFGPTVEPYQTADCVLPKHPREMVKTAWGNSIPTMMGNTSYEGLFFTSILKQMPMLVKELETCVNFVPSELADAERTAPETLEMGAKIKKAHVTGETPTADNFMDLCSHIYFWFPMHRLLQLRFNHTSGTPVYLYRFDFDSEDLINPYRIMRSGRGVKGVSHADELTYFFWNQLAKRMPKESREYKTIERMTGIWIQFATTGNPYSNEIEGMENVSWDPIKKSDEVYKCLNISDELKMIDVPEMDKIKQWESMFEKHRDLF
Protocol: Wild-type LcαE7 was heterologously expressed in Escherichia coli and purified using metal ion affinity and size exclusion chromatography. The potency of the boronic acids was determined by enzymatic assays of recombinant LcαE7 with the model carboxylester substrate 4-nitrophenol butyrate.
(§1) Inhibition of wild-type αE7 and the Gly137Asp αE7 variant was determined by a competition assay between the native-substrate analogue 4-nitrophenol butyrate (Sigma) and the boronic acid compounds. Initially, the Michalis constant (KM) with 4-nitrophenol butyrate was measured for both enzymes to determine an appropriate concentration of substrate for use in the competition assays. Formation of the 4-nitrophenolate product of hydrolysis was monitored at 405 nm in the presence of enzyme and eight different concentrations of substrate. 4-nitrophenol butyrate was prepared in methanol to 100 mM and serially diluted 1-in-2 to achieve concentrations from 100 mM to 0.8 mM. Enzyme stocks were prepared in 4 mg/ml bovine serum albumin (Sigma) to maintain enzyme stability. Reactions were prepared by pipetting 178 μl assay buffer (100 mM NaCl, 20 mM HEPES pH 7.5) and 2 μl substrate (final concentrations of 1000 to 8 μM) into 300 μl wells of a 96-well plate. The reaction was initiated by the addition of 20 μl enzyme (final concentration 2.5 nM for wildtype αE7 and 4 nM for Gly137Asp αE7). Product formation was monitored for four minutes at room temperature using an Epoch microplate spectrophotometer (BioTek) and the initial rates of ester hydrolysis were determined by linear regression using GraphPad Prism. The Michalis constant was determined by fitting the initial rates to the Michalis-Menton equation (FIG. 10).
Enzyme inhibition with the boronic acid compounds was determined by assaying the initial rate of 4-nitrophenol butyrate hydrolysis in the presence of either neat DMSO or the boronic acid compounds in DMSO. Compounds were prepared by serially diluting 1-in-3 an initial 10 mM stock to achieve concentrations from 10 mM to 2 nM. Reactions were prepared by pipetting 178 μl assay buffer supplemented with substrate to a final concentration equal to the KM of the enzyme (15 μM for wildtype αE7 and 250 μM for Gly137Asp αE7) into wells of a 96-well plate. 2 μl neat DMSO or 2 μl serially diluted inhibitor (final concentrations of 100 μM to 20 pM) were added to the wells. The reaction was initiated by the addition of 20 μl enzyme (final concentration 0.5 nM for wildtype αE7 and 10 nM for Glyl37Asp αE7). Product formation was monitored for four minutes at room temperature and the initial rates of ester hydrolysis were determined by linear regression. To determine the concentration of boronic acid compounds required to inhibit 50% of esterase activity (IC50), a four-parameter sigmoidal dose-response curve was fitted to percentage inhibition using GraphPad Prism (FIGS. 7 and 8). Ki values were determined using the Cheng-Prusoff equation assuming competitive inhibition (Yung-Chi, C. & Prusoff W. H. Relationship between the inhibition constant (KI) and the concentration of inhibitor which causes 50 percent inhibition (150) of an enzymatic reaction. Biochem. Pharmacol. 22, 3099-3108 (1973)).

[2] = molecular target: T2, Gly137Asp LcαE7 (Gly137Asp variant of αE7 carboxylesterase) (Lucilia cuprina, UniProt Q25252, G137D); test: Inhibition of Gly137Asp αE7 (competition assay, hydrolysis of 4-nitrophenol butyrate), dose-response curves of FIG. 8; format: biochemical
T2 construct: GenBank number is of the wild-type parent
Protocol: FIG. 8 presents dose-response curves for the inhibition of Glyl37Asp αE7. Inhibition of the hydrolysis of […] was determined for phenyl boronic acid (PBA) and compounds 1-5 and 3.1-3.12. Three (technical) replicate measurements of enzyme activity were performed for each concentration of boronic acid. The concentration of boronic acid required to inhibit 50% of activity (IC50) was determined by fitting a sigmoidal dose-response curve to plots of percentage inhibition. The curve was constrained to 0 (bottom) and 100% (top) inhibition with a variable Hill slope. […]
His6-tagged proteins were expressed in BL21(DE3) E. coli (Invitrogen) at 26° C. for 18 hours. Cells were collected by centrifugation, resuspended in lysis buffer (300 mM NaCl, 10 mM imidazole, 50 mM HEPES pH 7.5) and lysed by sonication. Cell debris was pelleted by centrifugation and the soluble fraction was loaded onto a HisTrap-HP Ni-Sepharose column (GE Healthcare). Bound protein was eluted with lysis buffer supplemented with 300 mM imidazole. Fractions containing the eluted protein were concentrated with a 30 kDa molecular mass cutoff centrifuge concentrator (Amicon) and loaded onto a HiLoad 26/60 Superdex-200 size-exclusion column (GE Healthcare) pre-equilibrated with 150 mM NaCl, 20 mM HEPES pH 7.5. Eluted fractions containing the monomeric protein were pooled for enzyme inhibition assays or crystallization. Protein concentration was determined by measuring the absorbance at 280 nm with an extinction coefficient calculated using the Protparam online server (Gasteiger, E. et al. Protein identification and analysis tools on the ExPASy server. Proteomics Protoc. Handb. 571-607 (2005). doi:10.1385/1-59259-890-0:571).
as §1
Enzyme inhibition with the boronic acid compounds was determined by assaying the initial rate of 4-nitrophenol butyrate hydrolysis in the presence of either neat DMSO or the boronic acid compounds in DMSO. Compounds were prepared by serially diluting 1-in-3 an initial 10 mM stock to achieve concentrations from 10 mM to 2 nM. Reactions were prepared by pipetting 178 μl assay buffer supplemented with substrate to a final concentration equal to the KM of the enzyme (15 μM for wildtype αE7 and 250 μM for Gly137Asp αE7) into wells of a 96-well plate. 2 μl neat DMSO or 2 μl serially diluted inhibitor (final concentrations of 100 μM to 20 pM) were added to the wells. The reaction was initiated by the addition of 20 μl enzyme (final concentration 0.5 nM for wildtype αE7 and 10 nM for Glyl37Asp αE7). […]

T2 sequence (Q25252 entry or part of it G137D): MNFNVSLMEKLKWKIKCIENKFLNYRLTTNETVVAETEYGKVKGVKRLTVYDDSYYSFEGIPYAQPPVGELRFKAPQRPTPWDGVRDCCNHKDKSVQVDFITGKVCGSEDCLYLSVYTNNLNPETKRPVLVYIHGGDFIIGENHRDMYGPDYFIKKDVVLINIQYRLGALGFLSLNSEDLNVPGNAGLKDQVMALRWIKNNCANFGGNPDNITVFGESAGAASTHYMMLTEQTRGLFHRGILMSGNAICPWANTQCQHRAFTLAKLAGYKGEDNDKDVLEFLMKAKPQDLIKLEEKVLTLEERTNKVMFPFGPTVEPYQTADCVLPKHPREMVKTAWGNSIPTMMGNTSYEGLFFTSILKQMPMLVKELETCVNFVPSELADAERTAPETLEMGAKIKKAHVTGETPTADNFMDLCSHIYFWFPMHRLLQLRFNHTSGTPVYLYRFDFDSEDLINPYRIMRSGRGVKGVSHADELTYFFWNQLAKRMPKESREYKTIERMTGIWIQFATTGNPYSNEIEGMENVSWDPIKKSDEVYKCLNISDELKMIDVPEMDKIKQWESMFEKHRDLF

| Structure (SMILES) | Ki [1] | IC50 [2] | Ki ([1]; Cheng-Prusoff from dose-response, 4-nitrophenol butyrate, read-out: Ki wildtype LcαE7) |
| --- | --- | --- | --- |
| CC(C)(C)Oc1ccc(B(O)O)cc1Br [Compound 3.12] | 12 nM | 1900 nM |  |
| CC(C)Oc1cc(Br)cc(B(O)O)c1 [Compound 3.7, 3-Bromo-5-isopropoxyphenylboronic acid] | 0.3 nM | 150 nM |  |
| OB(O)c1cc(Br)cc(N2CCOCC2)c1 [Compound 3.1] |  | 840 nM | 0.7 nM |
| OB(O)c1ccc(OCc2ccccc2F)c(Cl)c1 [Compound 5, 3-Chloro-4(2′-fluorobenzyloxy) phenylboronic acid] | 11 nM | 320 nM |  |
| OB(O)c1cc(Br)cc(OCc2ccccc2)c1 [Compound 3.9] | 0.44 nM |  |  |
| OB(O)c1cc(Br)cc(Oc2ccccc2)c1 [Compound 3.10, 3-Bromo-5-phenoxyfenylboronic acid] | 0.44 nM |  |  |
| Cc1ccc(B(O)O)cc1Br [Compound 1] | 12 nM | 95 nM |  |
| CN1CCN(c2cc(Br)cc(B(O)O)c2)CC1 [Compound 3.4] | 3.8 nM | 2000 nM |  |
| OB(O)c1cc(Br)c2ccccc2c1F [Compound 3.6] | 6 nM | 140 nM |  |
| OB(O)c1cc(Br)cc(N2CCCCC2)c1 [Compound 3.3] | 0.47 nM | 290 nM |  |
| OB(O)c1ccccc1 [PBA, phenylboronic acid, reference compound] | 210 nM | 880 nM |  |
| OB(O)c1cc(Br)cc(N2CCCC2)c1 [Compound 3] | 0.25 nM | 220 nM |  |
| OB(O)c1ccc2ccccc2c1 [Compound 4] | 7.2 nM | 370 nM |  |
| Cc1ccc(B(O)O)cc1OCc1ccccc1 [Compound 2] | 2.9 nM | 57 nM |  |
| OB(O)c1cc(Br)cc(OC(F)(F)F)c1 [Compound 3.8] | 2 nM | 210 nM |  |
| OB(O)c1cc(Br)cc2c1OCC2 [Compound 3.5] | 3.4 nM | 850 nM |  |
| O=C(c1cc(Cl)cc(B(O)O)c1)N1CCOCC1 [Compound 3.11] | 5.8 nM | 2000 nM |  |
